# Assay results reported in article PMC7018803, “A randomized, placebo-controlled, phase 1 study to evaluate the effects of TAK-063 on ketamine-induced changes in fMRI BOLD signal in healthy subjects” (Psychopharmacology, 2019).
# Test system: healthy male subjects
# Assay: Ketamine-induced changes in fMRI BOLD signal during working memory task (AX-CPT)
# Type: in vivo, human
# Experimental: Subjects checked in on day − 1 of each treatment period during which vital signs, electrocardiogram (ECG), and laboratory safety tests were repeated. On day 1 of each treatment period, subjects received a 3-, 10-, or 30-mg TAK-063 dose or placebo tablets. Participants then relaxed, slept, or watched movies while remaining in the research environment. Ketamine (0.12 mg/kg intravenous bolus over 60 s followed by a continuous infusion of 0.31 mg/kg/h over approximately 150 min) was administered 4 h after TAK-063 or placebo (Fig. 1). This ketamine dose was based on a previous study that achieved steady-state concentrations of 75 ng/mL and provided a robust BOLD signal with minimal psychotomimetic symptoms (De Simoni et al. [2013]).
# The scanning protocol for the current study was very comprehensive and included multiple MR approaches. This publication reports the BOLD fMRI data for the working memory task, but also resting state fMRI. The magnetic scanning portion of the neuroimaging test battery was initiated 20 min before ketamine dosing. Imaging was performed using a 3 Tesla Siemens Trio scanner. The MR scanning protocol was initiated 20 min before ketamine dosing; prior to scanning, a structural magnetization prepared rapid gradient echo (MPRAGE) scan was collected. As part of the scanning protocol, each subject received 20 min of scanning − 10 min arterial spin labeling (ASL) plus 10 min resting BOLD prior to ketamine infusion. After ketamine infusion, the resting state fMRI BOLD acquisition continued for an additional 10 min. Next, a Spatial Working Memory task-induced fMRI BOLD acquisition was performed for 15 min. Following these BOLD acquisitions, another 10 min ASL scan was acquired and a 10-min T1 relaxometry scan was conducted. The MR scanning sequence ended with a 5-min MPRAGE acquisition. […]
# The functional imaging analyses for the working memory task was performed using SPM8 (Wellcome Department of Cognitive Neurology, London, UK). […] Data from each subject for each task were analyzed with a fixed box-car function convolved with a model hemodynamic response function. […]
structure (smiles),measurement,setting,value
COc1cn(-c2ccc(-n3cccn3)cc2F)nc(-c2ccnn2-c2ccccc2)c1=O [TAK-063],"effect size in right substantia nigra, left thalamus and left ventrolateral prefrontal cortex","10 mg, working memory task, small non-negative effects",< 0.15
same,effect in left amygdala,"30 mg, working memory task",small non-negative effect
same,effect on Cohen's effect size for fMRI BOLD signal during working memory task,across all doses,decreased the Cohen’s effect size for fMRI BOLD signal in many brain regions
